Data as given in the supplement of paper PMC10307832.

How the values were obtained:
Assay in all cases: relative viability (nuclei count vs DMSO), 5 days (fraction); higher = more cells survive
[1] = compound: CC1=CN2C(=O)C=C(N=C2C(=C1)C(C)NC3=CC=CC=C3)N4CCOCC4 [TGX 221] + COc1cccc2cc(-c3nc([C@H]4CC[C@H](C(=O)O)CC4)n4ncnc(N)c34)[nH]c12 [OSI-027] (partner 0.5 µM)
In short: (§1)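 Values are medians from duplicate plates. Each reflects relative viability, defined as the nuclei count of treated wells over that of vehicle wells. Lung cancer cell lines in 1536-well plates were pin-tool dosed one day after seeding with one drug alone or with a fixed anchor-drug dose plus five library-drug doses (not always all listed) in √10 steps, then fixed, stained and imaged at 4× after 5 days.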

[2] = compound: C1=CC=C(C(=C1)C2=CC=C(C=C2)C3=CSC4=C3C(=C(C(=O)N4)C#N)O)O + Cc1cc(Nc2cc(N3CCN(C)CC3)nc(Sc3ccc(NC(=O)C4CC4)cc3)n2)n[nH]1 [Tozasertib] (partner 0.1 µM)
In short: as §1

[3] = compound: O=C(CCCCCCNC(=O)c1cnc(N(c2ccccc2)c2ccccc2)nc1)NO [Ricolinostat] + Nc1ncn([C@H]2C[C@H](O)[C@@H](CO)O2)c(=O)n1 [Decitabine] (partner 2 µM)
In short: as §1

[4] = compound: O=C(CCCCCCNC(=O)c1cnc(N(c2ccccc2)c2ccccc2)nc1)NO [Ricolinostat] + C[C@]1(O)C[C@@H](c2nc(-c3ccc4ccc(-c5ccccc5)nc4c3)c3c(N)nccn32)C1 [Linsitinib] (partner 1 µM)
In short: as §1

Row | Cell Line | relative viability ([1]; first compound 0.08 µM) | relative viability ([1]; first compound 0.253 µM) | relative viability ([1]; first compound 0.8 µM) | relative viability ([1]; first compound 2.53 µM) | relative viability ([1]; first compound 8 µM) | relative viability ([2]; first compound 0.08 µM) | relative viability ([2]; first compound 0.253 µM) | relative viability ([2]; first compound 0.8 µM) | relative viability ([2]; first compound 2.53 µM) | relative viability ([2]; first compound 8 µM) | relative viability ([3]; first compound 0.08 µM) | relative viability ([3]; first compound 0.253 µM) | relative viability ([3]; first compound 0.8 µM) | relative viability ([3]; first compound 2.53 µM) | relative viability ([4]; first compound 0.08 µM) | relative viability ([4]; first compound 0.253 µM) | relative viability ([4]; first compound 0.8 µM) | relative viability ([4]; first compound 2.53 µM)
1 | NCI-H727 | 0.556 | 0.478 | 0.693 | 0.529 | 0.566 | 0.537 | 0.604 | 0.762 | 0.702 | 0.53 | 0.807 | 0.934 | 0.957 | 0.952 | 0.212 | 0.269 | 0.333 | 0.354
2 | NCI-H1734 | 0.57 | 0.579 | 0.621 | 0.527 | 0.532 | 0.266 | 0.238 | 0.279 | 0.288 | 0.216 | 0.486 | 0.497 | 0.519 | 0.47 | 0.737 | 0.843 | 0.961 | 1
3 | NCI-H1993 | 0.504 | 0.575 | 0.579 | 0.559 | 0.533 | 0.592 | 0.524 | 0.534 | 0.592 | 0.571 | 0.571 | 0.588 | 0.599 | 0.709 | 0.696 | 0.772 | 0.665 | 0.778
4 | HCC-827 | 0.735 | 0.761 | 0.799 | 0.727 | 0.78 | 0.477 | 0.455 | 0.402 | 0.507 | 0.399 | 0.32 | 0.327 | 0.233 | 0.274 | 0.896 | 0.91 | 0.966 | 1.02
5 | NCI-H1437 | 0.878 | 0.899 | 0.809 | 0.848 | 0.728 | 0.367 | 0.409 | 0.44 | 0.438 | 0.382 | 0.448 | 0.545 | 0.543 | 0.467 | 0.805 | 1.03 | 0.98 | 0.647
6 | EPLC-272H | 0.273 | 0.28 | 0.244 | 0.293 | 0.316 | 0.223 | 0.194 | 0.227 | 0.22 | 0.247 |  | 0.36 | 0.368 | 0.325 |  | 0.894 | 1.21 | 0.772
7 | NCI-H2126 | 0.703 | 0.733 | 0.619 | 0.539 | 0.702 | 0.687 | 0.956 | 0.893 | 0.923 | 0.809 | 0.563 | 0.555 | 0.561 | 0.481 | 0.539 | 0.724 | 0.7 | 0.627
8 | NCI-H1666 | 0.836 | 0.81 | 0.831 | 0.819 | 0.887 | 0.556 | 0.658 | 0.577 | 0.598 | 0.553 | 0.71 | 0.764 | 0.758 | 0.717 | 0.799 | 0.806 | 0.745 | 0.468
9 | RERF-LC-KJ | 0.567 | 0.598 | 0.593 | 0.574 | 0.534 | 0.488 | 0.474 | 0.52 | 0.527 | 0.463 | 0.77 | 0.609 | 0.672 | 0.618 | 0.952 | 0.77 | 0.897 | 0.824
